Test results from patent US12622965B2, “Therapeutical tools and methods using temperature-sensitive receptors for treating blindness” (FRIEDRICH MIESCHER INSTITUTE FOR BIOMEDICAL RESEARCH, priority 2020, dated 2026).

Tested on: HEK cells expressing TRPV1.459-6x-His, TRPV1.465-6x-His or untagged TRPV1
Test: whole cell voltage clamp in HEK cells expressing TRPV1 variants, activated by capsaicin
Type: cell-based
Details: TRPV1 agonist capsaicin 2.5 μM bath applied; voltage clamp −60 mV; mean±s.e.m
From the text: First, they developed a system based on rat TRPV1 channels and gold nanorods with absorption maxima at 915 nm. 915 nm was selected to ensure low water absorption. […] To measure if tagged channels are functional, they performed whole cell voltage clamp in HEK cells expressing TRPV1.459-6x-His, TRPV1.465-6x-His or untagged TRPV1 while activating the channels by TRPV1 agonist capsaicin. The size of evoked currents were similar between TRPV1.465-6x-His and TRPV1 (Mann-Whitney U test, P=0.8551; TRPV1.465-6x-His, 1633±164 pA, […] 15 cells; TRPV1, 1766±276 pA, n=14 cells; mean±s.e.m), but less in TRPV1.459-6x-His (Mann-Whitney U test, P=0.0207; TRPV1.459-6x-His, 976±118 pA, n=19 cells; mean±s.e.m). Therefore, they used TRPV1.465-6x-His (rTRPV1) in subsequent experiments.
For HEK293T cell experiments, cells were maintained at 37° C. on poly-D-lysine/laminin coated coverslips (GG-12-Laminin, Neuvitro) in DMEM supplemented with 10% fetal bovine serum. Cells were transfected with plasmids containing TRP variants using branched PEI. Cells were perfused in oxygenated Ringer's medium containing 110 mM NaCl, 2.5 mM KCl, 1 mM CaCl2, 1.6 mM MgCl2, 10 mM D-glucose and 22 mM NaHCO3 at ˜36° C. for the duration of the experiment. […] Data was analyzed offline using MATLAB (MathWorks).

TRPV1: untagged rat TRPV1 channel [reference compound]
size of evoked currents: 1766±276 pA
